Measured values reported in patent US6458585B1, “Cytokine-free culture of dendritic cells” (Nexell Therapeutics Inc., priority 1996, dated 2002).

Columns and labels:
Format in all cases: cell-based, human
Bulk PBMNC [1] = experiment: S100+ cells in bulk PBMNC cultures with non-cytokine additives; details: day 7; average
Protocol: Immunocytochemical staining: PBS (phosphate buffered saline) was made by dissolving 5 PBS tablets into 1000 ml millipore water. Cytospin slides were soaked in PBS. Endogenous peroxidase activity was blocked by treating slides with hydrogen peroxide/PBS (2 ml 30% H2O2+30 ml PBS) for 10 min. Slides were rinsed with PBS one time. Non-specific binding sites were blocked by incubating with normal serum matching source of secondary antibody (i.e. if secondary antibody is biotinylated goat-anti-mouse, used normal goat serum) at room temp. for 15 min. in a humidified environment. Excess serum was shaken from slides and placed 100 ul of primary antibody on slide, making sure cells are covered with liquid and incubated in humidified environment, room temp, for one hour. Negative control slides were incubated with normal serum for this hour. Slides were rinsed 3 times with PBS. Slides were incubated with biotinylated antibody reactive against the primary antibody (i.e. if primary antibody is mouse-anti-human, use a biotinylated goat-anti-mouse antibody) for 1 hour in humidity. Slides were rinsed 3 times with PBS. Slides were incubated with streptavidin-peroxidase, 2 drops/slide, for 30 min. in humidity. Slides were rinsed 3 times with PBS.
Chromagen solution was made with 5 ml millipore water+2 drops of chromagen buffer+1 drop of concentrated chromagen+1 drop of substrate, and 4-5 drops were added to each slide. […] Slides were counterstained with hematoxylin for about 5 min, or until cell nuclei were stained purple. Cells were rinsed with tap water and allowed to air dry. Slides were covered with crystal mount and oven dried at 80 degrees for 15 min. Slides were allowed to cool, then coversliped with mounting medium.
(§1) Culture of Bulk PBMNC: PBMNC cells were cultured in X-VIVO 15™ supplemented with 2 mM L- glutamine. Cultures were initiated at 5×^05 cells/ml in PL2417 gas-permeable containers (20 ml). GM-CSF and IL-4 were added to the cultures at final concentrations of 50 ng/ml and 1000 U/ml or non-cytokine additives such as Vitamin D3 at 2.5 uM, Vitamin E at 0.1%, Linoleic Acid at 5 ug/ml, or Ca++ Ionophore at 10 mM. Addition and subtraction of cells, media, and growth factors to and from PL2417 gas-permeable containers was accomplished by spiking a Sampling Site Coupler into the sample port of the container followed by use of syringes and needles. Cells were cultured in a 5% CO2, ambient O2, 37° C. humidified incubator for 7 days.
(§2) Cytospin slide preparation, Wright-Geimsa and immunohistochemical staining of the cultured cells were conducted as described in Example 1 and 2 above. Mixed lymphocyte reactions (MLR's) were setup using T cells (responders) and dendritic cell enriched cultures (stimulators) from bulk PBMNC cultures, as described above in Example 1.
The S100 protein is a nerve cell protein that has been associated with dendritic cells. In Table 47, at day 7 of culture, the highest percent of S100+ cells was present in the GM-CSF/IL-4 culture (13%).

Bulk PBMNC [2] = experiment: Morphologically identified dendritic cells in bulk PBMNC cultures with non-cytokine additives
Protocol: Cytofunnels were attached to microscope slides. 50,000 to 100,000 cells were removed from each culture and resuspended in approximately 100 to 200 ul of PBS-CMF. Slides were placed in the Cytospin® centrifuge and spun at 100 rpm for 4 min. Cytofunnels were removed from the slides and the slides were air dried for 1 minute. Ten drops of Wright-Geimsa stain were placed onto each slide and allowed to fix for 1 to 2 minutes. Ten drops of water were added to each slide and allowed to sit for 2 to 4 minutes. The slides were rinsed and air dried.
Reading of Cytospin Slides: Slides were read under phase contrast microscopy, 40× and 60× oil magnification. One hundred cells were identified and characterized morphologically as either dendritic cells or non-dendritic cells (lymphocytes and monocyte, or CD34+-derived cells in those cases). Digital images were taken using a color monitor and color video printer.
as §1, §2

adherent PBMNC [3] = experiment: Cell counts and viability of plastic adherent cells cultured with non-cytokine additives in polystyrene plates; parameters: % VIABLE: concentration or dose not given beside the values; details: for % VIABLE: propidium iodide
adherent PBMNC [4] = experiment: S100 immunohistochemistry of plastic adherent cells cultured with non-cytokine additives; details: for percentage of S100+ cells: without GM-CSF added to additives

CCCCC/C=C\C/C=C\CCCCCCCC(=O)O [Linoleic Acid]
percent of S100+ cells (Bulk PBMNC [1]): equivalent average percentages | % DC (Bulk PBMNC [2]; Day 7): 5.00% | TOTAL # OF DC (Bulk PBMNC [2]; Day 7, projected in culture): 4.63E+05 | fold fewer DC (average total number projected in culture) than GM-CSF/IL-4 cultures (Bulk PBMNC [2]; day 7): approximately 4 fold | TOTAL CELLS (adherent PBMNC [3]; Day 4, with GM-CSF present): 1.41E + 05 | % VIABLE (adherent PBMNC [3]; Day 4, with GM-CSF present): 96.07% | TOTAL CELLS (adherent PBMNC [3]; Day 4, without GM-CSF): 1.99E + 05 | % VIABLE (adherent PBMNC [3]; Day 4, without GM-CSF): 78.84% | TOTAL CELLS (adherent PBMNC [3]; Day 7, with GM-CSF present): 7.85E + 05 | % VIABLE (adherent PBMNC [3]; Day 7, with GM-CSF present): 82.63% | TOTAL CELLS (adherent PBMNC [3]; Day 7, without GM-CSF): 1.19E + 05 | % VIABLE (adherent PBMNC [3]; Day 7, without GM-CSF): 82.69% | % S100+ (adherent PBMNC [4]; Day 4, with GM-CSF present): 12.00% | % S100+ (adherent PBMNC [4]; Day 4, without GM-CSF): 20.00% | % S100+ (adherent PBMNC [4]; Day 7, with GM-CSF present): 26.00% | % S100+ (adherent PBMNC [4]; Day 7, without GM-CSF): 25.00% | percentage of S100+ cells (adherent PBMNC [4]; day 4): 20% | percentage of S100+ cells (adherent PBMNC [4]; day 7): next highest percentages
